Test results: PubChem BioAssay (NCI)
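GI50 marks 50% less growth. TGI: total growth inhibition.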

Legend:
Assay in all cases: NCI-60 cell line screen, 384-well format
MDA-MB-231 breast = test system: MDA-MB-231 breast
K-562 leukemia = test system: K-562 leukemia
TK-10 renal = test system: TK-10 renal
UACC-62 melanoma = test system: UACC-62 melanoma
SK-OV-3 ovarian = test system: SK-OV-3 ovarian
MDA-MB-468 breast = test system: MDA-MB-468 breast
IGROV1 ovarian = test system: IGROV1 ovarian
MCF7 breast = test system: MCF7 breast
RXF 393 renal = test system: RXF 393 renal
NCI-H522 lung = test system: NCI-H522 lung
SW-620 colon = test system: SW-620 colon
DU-145 prostate = test system: DU-145 prostate
COLO 205 colon = test system: COLO 205 colon
HCT-15 colon = test system: HCT-15 colon
U251 glioblastoma = test system: U251 glioblastoma
NCI-H23 lung = test system: NCI-H23 lung
MOLT-4 leukemia = test system: MOLT-4 leukemia
786-0 renal = test system: 786-0 renal
NCI-H226 lung = test system: NCI-H226 lung
PC-3 prostate = test system: PC-3 prostate
SR leukemia = test system: SR leukemia
HCT-116 colon = test system: HCT-116 colon
BT-549 breast = test system: BT-549 breast
SF-268 CNS = test system: SF-268 CNS
SF-539 CNS = test system: SF-539 CNS
SK-MEL-2 melanoma = test system: SK-MEL-2 melanoma
SNB-75 CNS = test system: SNB-75 CNS
A498 renal = test system: A498 renal
HS 578T breast = test system: HS 578T breast
UO-31 renal = test system: UO-31 renal
HL-60(TB) leukemia = test system: HL-60(TB) leukemia
KM12 colon = test system: KM12 colon
T-47D breast = test system: T-47D breast
MDA-MB-435 melanoma = test system: MDA-MB-435 melanoma
OVCAR-8 ovarian = test system: OVCAR-8 ovarian
UACC-257 melanoma = test system: UACC-257 melanoma
CAKI-1 renal = test system: CAKI-1 renal
SK-MEL-28 melanoma = test system: SK-MEL-28 melanoma
SK-MEL-5 melanoma = test system: SK-MEL-5 melanoma
OVCAR-3 ovarian = test system: OVCAR-3 ovarian
SN12C renal = test system: SN12C renal
ACHN renal = test system: ACHN renal
OVCAR-4 ovarian = test system: OVCAR-4 ovarian
HOP-92 NSCLC = test system: HOP-92 NSCLC
EKVX NSCLC = test system: EKVX NSCLC
SF-295 CNS = test system: SF-295 CNS
M14 melanoma = test system: M14 melanoma
OVCAR-5 ovarian = test system: OVCAR-5 ovarian
NCI-H322M lung = test system: NCI-H322M lung
HT29 colon = test system: HT29 colon
HOP-62 NSCLC = test system: HOP-62 NSCLC
NCI-H460 NSCLC = test system: NCI-H460 NSCLC
MALME-3M melanoma = test system: MALME-3M melanoma
SNB-19 CNS = test system: SNB-19 CNS
A549 NSCLC = test system: A549 NSCLC

For Cc1ccc(C(=O)Nc2cccc(C(F)(F)F)c2)cc1Nc1nc(-c2cccnc2)nc2c1cnn2C, the GI50 (MDA-MB-231 breast) was 0.181 µM, the TGI (MDA-MB-231 breast) was 3.87 µM and the GI50 (K-562 leukemia) was 0.0122 µM. For the same molecule, the TGI (K-562 leukemia) was 0.029 µM, the GI50 (TK-10 renal) was 1.37 µM and the TGI (TK-10 renal) was 3.13 µM. The GI50 (UACC-62 melanoma) was 0.309 µM, the TGI (UACC-62 melanoma) was 1.51 µM and the GI50 (SK-OV-3 ovarian) was 1.88 µM. The TGI (SK-OV-3 ovarian) was 3.94 µM, the GI50 (MDA-MB-468 breast) was 1.08 µM and the TGI (MDA-MB-468 breast) was 2.31 µM. It also gave a GI50 (IGROV1 ovarian) of 0.782 µM, a TGI (IGROV1 ovarian) of 2.6 µM and a GI50 (MCF7 breast) of 1.31 µM. It also gave a TGI (MCF7 breast) of 2.62 µM, a GI50 (RXF 393 renal) of 0.137 µM and a TGI (RXF 393 renal) of 1.11 µM. It also gave a GI50 (NCI-H522 lung) of 1.38 µM, a TGI (NCI-H522 lung) of 2.72 µM and a GI50 (SW-620 colon) of 0.955 µM. It also gave a TGI (SW-620 colon) of 2.26 µM, a GI50 (DU-145 prostate) of 1.71 µM and a TGI (DU-145 prostate) of 4.34 µM. For the same molecule, the GI50 (COLO 205 colon) was 0.522 µM, the TGI (COLO 205 colon) was 2.22 µM and the GI50 (HCT-15 colon) was 0.882 µM. For the same molecule, the TGI (HCT-15 colon) was 2.16 µM, the GI50 (U251 glioblastoma) was 1.63 µM and the TGI (U251 glioblastoma) was 3.24 µM. For the same molecule, the GI50 (NCI-H23 lung) was 0.248 µM, the TGI (NCI-H23 lung) was 1.9 µM and the GI50 (MOLT-4 leukemia) was 0.593 µM. It also gave a TGI (MOLT-4 leukemia) of 1.89 µM, a GI50 ([…]-0 renal) of 1.12 µM and a TGI (786-0 renal) of 2.41 µM. The GI50 (NCI-H226 lung) was 0.774 µM, the TGI (NCI-H226 lung) was 2.12 µM and the GI50 (PC-3 prostate) was 1.82 µM. For the same molecule, the TGI (PC-3 prostate) was 4.55 µM, the GI50 (SR leukemia) was 0.39 µM and the TGI (SR leukemia) was 1.32 µM. The GI50 (HCT-116 colon) was 0.372 µM, the TGI (HCT-116 colon) was 1.88 µM and the GI50 (BT-549 breast) was 1.67 µM. For the same molecule, the TGI (BT-549 breast) was 3.66 µM, the GI50 (SF-268 CNS) was 1.7 µM and the TGI (SF-268 CNS) was 4.21 µM. The GI50 (SF-539 CNS) was 0.677 µM, the TGI (SF-539 CNS) was 2.06 µM and the GI50 (SK-MEL-2 melanoma) was 0.24 µM. The TGI (SK-MEL-2 melanoma) was 0.959 µM, the GI50 (SNB-75 CNS) was 1.96 µM and the TGI (SNB-75 CNS) was 4.28 µM. It also gave a GI50 (A498 renal) of 1.21 µM, a TGI (A498 renal) of 2.95 µM and a GI50 (HS 578T breast) of 1.06 µM. For the same molecule, the TGI (HS 578T breast) was 2.31 µM, the GI50 (UO-31 renal) was 0.605 µM and the TGI (UO-31 renal) was 2.09 µM. It also gave a GI50 (HL-60(TB) leukemia) of 0.0806 µM, a TGI (HL-60(TB) leukemia) of 1.28 µM and a GI50 (KM12 colon) of 1.49 µM. The TGI (KM12 colon) was 2.98 µM, the GI50 (T-47D breast) was 1.29 µM and the TGI (T-47D breast) was 2.7 µM. It also gave a GI50 (MDA-MB-435 melanoma) of 0.487 µM, a TGI (MDA-MB-435 melanoma) of 2.39 µM and a GI50 (OVCAR-8 ovarian) of 1.88 µM. The TGI (OVCAR-8 ovarian) was 4.79 µM, the GI50 (UACC-257 melanoma) was 0.378 µM and the TGI (UACC-257 melanoma) was 1.89 µM. For the same molecule, the GI50 (CAKI-1 renal) was 0.972 µM, the TGI (CAKI-1 renal) was 2.15 µM and the GI50 (SK-MEL-28 melanoma) was 0.319 µM. The TGI (SK-MEL-28 melanoma) was 1.84 µM, the GI50 (SK-MEL-5 melanoma) was 0.466 µM and the TGI (SK-MEL-5 melanoma) was 1.82 µM. For the same molecule, the GI50 (OVCAR-3 ovarian) was 1.49 µM, the TGI (OVCAR-3 ovarian) was 3.21 µM and the GI50 (SN12C renal) was 2.15 µM. The TGI (SN12C renal) was 10.3 µM, the GI50 (ACHN renal) was 1.03 µM and the TGI (ACHN renal) was 2.51 µM. It also gave a GI50 (OVCAR-4 ovarian) of 1.59 µM, a TGI (OVCAR-4 ovarian) of 4.05 µM and a GI50 (HOP-92 NSCLC) of 1.58 µM. The TGI (HOP-92 NSCLC) was 5.85 µM, the GI50 (EKVX NSCLC) was 1.15 µM and the TGI (EKVX NSCLC) was 3.08 µM. The GI50 (SF-295 CNS) was 1.72 µM, the TGI (SF-295 CNS) was 3.15 µM and the GI50 (M14 melanoma) was 0.291 µM. It also gave a TGI (M14 melanoma) of 1.41 µM, a GI50 (OVCAR-5 ovarian) of 1.41 µM and a TGI (OVCAR-5 ovarian) of 8.45 µM. It also gave a GI50 (NCI-H322M lung) of 2.06 µM, a TGI (NCI-H322M lung) of 4.89 µM and a GI50 (HT29 colon) of 0.341 µM. The TGI (HT29 colon) was 1.33 µM, the GI50 (HOP-62 NSCLC) was 1.41 µM and the TGI (HOP-62 NSCLC) was 3.27 µM. For the same molecule, the GI50 (NCI-H460 NSCLC) was 0.383 µM, the TGI (NCI-H460 NSCLC) was 1.75 µM and the GI50 (MALME-3M melanoma) was 0.222 µM. It also gave a TGI (MALME-3M melanoma) of 0.757 µM, a GI50 (SNB-19 CNS) of 3.54 µM and a TGI (SNB-19 CNS) of 13.3 µM. The GI50 (A549 NSCLC) was 1.38 µM and the TGI (A549 NSCLC) was 2.96 µM.
